{
  "source": "paper PMC4125160",
  "about": "“Neurotoxicity and Mode of Action of N, N-Diethyl-Meta-Toluamide (DEET)” (PLoS ONE, 2014)",
  "key": {"[1]": {"tested_on": "sodium channels in neonatal rat cortical neurons", "assay": "Patch clamp of rat cortical neurons, sodium currents", "format": "cell-based", "procedure": "(§1) Rat cortical neurons (purchased from Lonza, Walkersville, MD, USA) were placed on poly-lysine coated glass cover slips in 35 mm dishes, and cultured in primary neuron basal medium with added 2% neural grown factor and 1% glutamine (from Lonza). The medium was half changed every 3 days, and the cells were used at 6–12 days. The neurons had dendrites and axons and the diameters of the somata were about 15–20 µm. Cells were cultured on cover slips and were immersed in 35 mm Petri dishes filled with room temperature extracellular saline. Patch pipettes were pulled from borosilicate glass capillaries with filament (BF150-86-10, Sutter Instrument, Novato CA, USA) on a P-1000 Flaming/Brown micropipette puller (Sutter Instrument). Extracellular solution was the same regardless of the target ion channel and contained: 140 mM NaCl, 5 mM KCl, 2 mM MgCl2, 2 mM CaCl2, 10 mM glucose, and 10 mM HEPES (pH = 7.4). Intracellular patch solution for potassium channel recordings consisted of: 140 mM KF, 10 mM NaCl, 2 mM MgCl2, and 10 mM HEPES (pH = 7.2). Intracellular patch solution for sodium channel recordings consisted of: 140 mM CsCH3SO3 10 mM NaCl, 2 mM MgCl2, 10 mM HEPES (pH = 7.2), where CsCH3SO3 was used to eliminate potassium currents during sodium channel analysis. The patch electrodes had resistances of 5–7 MOhms.\nPatch clamp recordings were performed with a 40x/0.80W water immersion objective (working distance 3.5 mm) using a forced-air-cooled Photometrics Evolve 512/CCD97 camera system. Following gigaseal formation, the membrane was ruptured through a brief, manual suction of the electrode, or by a 2 msec long zap pulse. Currents were amplified with the use of a patch-clamp amplifier (Axopatch 200B, Molecular Devices LLC, Sunnyvale, CA, USA) and processed for analysis via A/D-converter (Digidata 1440A, Molecular Devices LLC). Recordings underwent series resistance compensation, low-pass filtering at 1 kHz, and were sampled at 10 kHz or 100 kHz for potassium and sodium currents, respectively. For recording and analyzing data, pClamp 10.0 software (Molecular Devices LLC) was used."}, "[2]": {"tested_on": "mosquitoes", "assay": "Toxicity to mosquitoes (abstract summary)", "format": "in vivo", "procedure": "Topical toxicity bioassays on adult female mosquitoes were performed based on the method of Pridgeon et al.. Briefly, insects were chilled on ice for 3 min, during which the appropriate volume (200 nL for mosquitoes, 1 µL for Musca) of chemical (dissolved in 95% ethanol) was applied onto the abdomen using a handheld Hamilton microapplicator. For each inhibitor, five doses were applied to groups of ten insects each and repeated three times. An ethanol-only treatment was included in each experiment as a negative control. Insects were transferred into a holding chamber post-treatment and supplied with free access to sugar water for the duration of the experiment. […] Three LD50 values were obtained and the mean LD50 value was calculated and used for statistical analysis."}, "[3]": {"tested_on": "Ae. aegypti", "assay": "WHO filter paper contact toxicity bioassay", "format": "in vivo", "conditions": "Aedes aegypti; WHO filter paper assay, 1 h exposure, mortality at 24 h; read-out: LC50 (95% CI)"}, "[4]": {"tested_on": "housefly larval central nervous system", "assay": "Neurophysiological recordings of CNS nerve discharge in housefly larvae", "conditions": "Musca domestica; intact CNS; value (95% CI); read-out: EC50, excitation of nerve firing"}, "[5]": {"tested_on": "rats", "set-up": "method as in ref 24 = [24]; 24 Macko J , Weeks M ( 1980 ) Phase 6: Acute toxicity evaluation of N,N-diethyl-meta-toluamide (M-Det.) . U.S. Army Environmental Hygiene Agency Study No.71-51-0034-81.", "conditions": "oral administration to rats ref 24; cited from earlier work"}, "[6]": {"tested_on": "Anopheles gambiae G3 (susceptible)", "assay": "WHO filter paper contact toxicity bioassay", "format": "in vivo", "conditions": "WHO filter paper assay, 1 h exposure, mortality at 24 h, read-out: LC50 (95% CI)", "procedure": "(§2) Contact toxicity bioassays were performed on both strains of Anopheles gambiae, G3 (susceptible) and AKRON (pyrethroid and anticholinesterase resistance) according to WHO protocol. Adult female mosquitoes were 2–5 days of age and non-blood fed at the time of experimentation. Five concentrations of inhibitor dissolved in ethanol were prepared and treated by applying 2 mL of each concentration on a 180 cm^2 (12 cm×15 cm) paper. Papers were left to dry for 24 hours prior to use. Mosquitoes were chilled for three minutes on ice, after which 25 females were placed in the WHO kit holding chamber to recover for one hour. Mosquitoes were then moved to the treatment chamber, which contain the treated paper, and exposed for one hour. After the one-hour exposure, the mosquitoes were transferred back to the holding chamber and maintained on 10% sugar solution for 24 hrs. Each concentration was repeated in triplicate. […] Three LC50 values were obtained and the mean LC50 value was used for statistical analysis.\n(§3) For all toxicity assays, control mortality was corrected for using Abbots formula [19]; where corrected percent mortality = (% alive in control–% alive in treated) /% alive in control."}, "[7]": {"tested_on": "Anopheles gambiae AKRON (pyrethroid and anticholinesterase resistance)", "assay": "WHO filter paper contact toxicity bioassay", "format": "in vivo", "conditions": "WHO filter paper assay, 1 h exposure, mortality at 24 h, read-out: LC50 (95% CI)", "procedure": "as §2, §3"}, "[8]": {"tested_on": "DmAChE, human AChE and butyrylcholinesterase", "set-up": "method as in PMID 19656357", "conditions": "cited from earlier work"}, "[9]": {"tested_on": "Drosophila melanogaster", "assay": "Diet (sugar-feeding) toxicity assay", "format": "in vivo", "conditions": "1 mg/ml, mortality at 24 h", "procedure": "Diet toxicity assays were performed on mixed sex adult Drosophila melanogaster fasted for 8 hours prior to initiating the experiment. Flies were transferred into a container stoppered with a cotton ball infused with 1 ml of a sucrose/DEET solution containing 20 insects (2–3 day old adults). The assay was run three times on three different days with matched controls. Mortality was recorded at the 24-hour time point.\nas §3"}, "[10]": {"tested_on": "potassium channels (Kv2 delayed rectifier) in neonatal rat cortical neurons", "assay": "Patch clamp of rat cortical neurons, potassium currents", "format": "cell-based", "procedure": "as §1, with “MOhms. […]” for “MOhms.”"}},
  "data": [
    {"smiles": "CCN(CC)C(=O)c1cccc(C)c1", "note": "[DEET, N, N-diethyl-meta-toluamide]", "values": [
      {"measurement": "block of inward sodium currents in words", "setting": "[1]; 1 mM", "value": "completely blocked"},
      {"measurement": "sodium current amplitude restored by washout", "setting": "[1]; after 1 mM block", "value": "approximately 50%"},
      {"measurement": "IC50", "setting": "[1]; read-out: IC50 against sodium channels", "value": "~700", "unit": "µM"},
      {"measurement": "LD50", "setting": "[2]", "value": "ca. 1.5 µg/mg"},
      {"measurement": "LC50", "setting": "[3]", "value": 2300, "unit": "µg/mL"},
      {"measurement": "EC50", "setting": "[4]", "value": 210, "unit": "µM"},
      {"measurement": "LD50", "setting": "[5]", "value": "ca. 3000 mg/kg"},
      {"measurement": "LC50", "setting": "[6]", "value": 1900, "unit": "µg/mL"},
      {"measurement": "LC50", "setting": "[7]", "value": 2700, "unit": "µg/mL"},
      {"measurement": "concentrations showing inhibitory effects", "setting": "[8]", "value": "0.1 to 10", "unit": "mM"},
      {"measurement": "toxicity in sugar-feeding assay", "setting": "[9]", "value": "non-toxic"},
      {"measurement": "control current amplitude restored by washout", "setting": "[10]", "value": "approximately 50%"}
    ]}
  ]
}
